# Patent US6773803B2, “Far-infrared emission powder with antibacterial activity and bio-wave steel plate coated with resin containing same” (Posco, priority 2000, dated 2004)
# Assay: pH of aqueous solution after adding 30 g powder to 100 g water
# Type: physicochemical
# Details: powder dissolved in distilled water, result in words
# Procedure: After the addition of the alkaline oxides or hydroxides, the aqueous solutions were measured for pH and the results are given in Table 1.
row,SMILES,influence on the pH of the distilled water
1,"[O]=[Ti]=[O] [Material No. C. 1, TiO2]",no influence on the pH
2,"[O]=[Al][O][Al]=[O] [Material No. C. 2, Al2O3]",no influence on the pH
3,"O=[Si]=O [Material No. C. 3, SiO2]",no influence on the pH
